Data taken from ChEMBL document CHEMBL1201862, “PubChem BioAssay data set” (2004).
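How tested: cells in 96-well plates exposed to compound for 48 hours at five concentrations. GI50 = concentration required for 50% inhibition of growth.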 Calls of active or inactive are those of the source. No stated cut-off is given here; in the data, active = GI50 up to about 1.1 µM and inactive = higher. Starred links: 1 amine or outer side, 2 acyl side, 3 side chain; linkers in the order of their positions; H or OH if unused. Positions of bridges follow the written chain, without caps; N, C: chain ends. Non-standard residues stand in square brackets, D forms with d. Residues, ends and D or L forms follow the SMILES beside them. Chains are numbered I, II in the order given. Actinocin(9to1) = Cc1c2oc3c(C)ccc(C(=O)[*:1])c3nc-2c(C(=O)[*:2])c(N)c1=O; NMeV = CN[CH](C(=O)O)C(C)C; Sar = CNCC(=O)O

Columns and labels:
Assay in all cases: NCI-60 cell line screen, 48 h
786-0 = system: 786-0
A549 = system: A549
ACHN = system: ACHN
COLO 205 = system: COLO 205
DU-145 = system: DU-145
EKVX = system: EKVX
HCC 2998 = system: HCC 2998
HCT-15 = system: HCT-15
HL-60 = system: HL-60
Hs-578T = system: Hs-578T
MDA-MB-231 = system: MDA-MB-231
MDA-N = system: MDA-N
NCI/ADR-RES = system: NCI/ADR-RES
OVCAR-5 = system: OVCAR-5
PC-3 = system: PC-3
SN12C = system: SN12C
SNB-19 = system: SNB-19
U-251 = system: U-251
SF-268 = system: SF-268
SK-OV-3 = system: SK-OV-3

Compound | GI50 (786-0) | GI50 (A549) | GI50 (ACHN) | GI50 (COLO 205) | GI50 (DU-145) | GI50 (EKVX) | GI50 (HCC 2998) | GI50 (HCT-15) | GI50 (HL-60) | GI50 (Hs-578T) | GI50 (MDA-MB-231) | GI50 (MDA-N) | GI50 (NCI/ADR-RES) | GI50 (OVCAR-5) | GI50 (PC-3) | GI50 (SN12C) | GI50 (SNB-19) | GI50 (U-251) | GI50 (SF-268) | GI50 (SK-OV-3)
C=C1C(=O)O[C@H]2C/C(C=O)=C\[C@H]3O[C@H]3/C(COC(=O)C(C)C)=C/CC12 (some centres not stated) | 2.9 µM (inactive) | 16.9 µM (inactive) | 2.32 µM (inactive) | 1.93 µM (inactive) | 11.1 µM (inactive) | 16.3 µM (inactive) | 13.4 µM (inactive) | 3.3 µM | 2.11 µM (inactive) | 2.89 µM (inactive) | 3.89 µM (inactive) | 2.91 µM (inactive) | 6.34 µM (inactive) | 2.01 µM (inactive) | 1.85 µM (inactive) | 2.54 µM (inactive) | 15.8 µM (inactive) | 7.26 µM (inactive) |  | 
COCC1OC(OC2C3=C(C(C)C)CCC3(C)/C=C3\C(CCC3(O)COC)C(C)C2O)C(O)C2OC3OC12OC3(C)C1CO1 (configuration not stated) | 60.8 µM (inactive) | 53.8 µM (inactive) | 47.2 µM (inactive) | 41.5 µM (inactive) | 72.6 µM (inactive) | 37.5 µM (inactive) | 42.2 µM (inactive) | 25.1 µM | 16.3 µM (inactive) | 19.6 µM (inactive) | 50.9 µM (inactive) | 54.1 µM (inactive) |  | > 100 µM (inactive) | 35 µM (inactive) | 50.9 µM (inactive) | 28.1 µM (inactive) | 24 µM (inactive) | 16.9 µM (inactive) | 51.8 µM (inactive)
C=C1C(=O)O[C@@]23C1CC[C@@H](C)C2CC[C@@]1(C)OC31 (some centres not stated) | 5.71 µM (inactive) | 21.2 µM (inactive) | 12.4 µM (inactive) | 1.86 µM (inactive) | 3.85 µM (inactive) | 12.5 µM (inactive) | 4.9 µM (inactive) | 9.33 µM | 2.72 µM (inactive) | 16 µM (inactive) |  | 5.09 µM (inactive) | 16.8 µM (inactive) | 12.6 µM (inactive) | 5.05 µM (inactive) | 7.24 µM (inactive) | 18.6 µM (inactive) | 6.35 µM (inactive) | 13.7 µM (inactive) | 16 µM (inactive)
CC(=O)/C=C/C1=C(C)CCCC1(C)CC(C)C (configuration not stated) | 19 µM (inactive) | 24.9 µM (inactive) | 22.1 µM (inactive) | 30.3 µM (inactive) | 69.3 µM (inactive) | 39.7 µM (inactive) | 17.6 µM (inactive) | 15.1 µM | 11.7 µM (inactive) | 32.7 µM (inactive) | 70.8 µM (inactive) | 28.9 µM (inactive) |  | 61.5 µM (inactive) | 35 µM (inactive) | 18.8 µM (inactive) | 27.4 µM (inactive) | 26.7 µM (inactive) | 39.7 µM (inactive) | 55.5 µM (inactive)
C=C[C@]1(C)CC(O)C2C(=C)C(=O)OC2[C@H]1C(=C)C=O (some centres not stated) | 1.91 µM (inactive) | 18.4 µM (inactive) | 2.36 µM (inactive) | 7.23 µM (inactive) | 12.1 µM (inactive) | 15 µM (inactive) | 14.1 µM (inactive) | 2.06 µM | 0.893 µM (active) | 14.4 µM (inactive) | 3.1 µM (inactive) | 3.92 µM (inactive) |  | 10.8 µM (inactive) | 2.87 µM (inactive) | 2.37 µM (inactive) | 18.2 µM (inactive) | 9.04 µM (inactive) | 3.95 µM (inactive) | 25.8 µM (inactive)
Cc1c2oc3c(C)ccc(C(=O)NC4C(=O)NC(Cc5ccc(O)cc5)C(=O)N5CCCC5C(=O)N(C)CC(=O)N(C)C(C(C)C)C(=O)OC4C)c3nc-2c(C(=O)NC2C(=O)NC(Cc3ccc(O)cc3)C(=O)N3CCCC3C(=O)N(C)CC(=O)N(C)C(C(C)C)C(=O)OC2C)c(N)c1=O (configuration not stated) (I: TYP[Sar][NMeV] / II: TYP[Sar][NMeV]; ester I:1-I:C, II:1-II:C; linker I:N-II:N via Actinocin(9to1); configuration not given here) | 0.368 µM (active) | 0.635 µM (active) | 0.397 µM (active) | 0.403 µM (active) | 1.43 µM (inactive) | 70.5 µM (inactive) | > 40.2 µM (inactive) | 8.65 µM |  | 16.6 µM (inactive) | 15.6 µM (inactive) | 0.535 µM (active) | > 94 µM (inactive) | 7.66 µM (inactive) | 4.11 µM (inactive) | 1.48 µM (inactive) | 0.449 µM (active) | 0.374 µM (active) | 0.16 µM (active) | 10.5 µM (inactive)
O=C1c2cccnc2-c2nccc3c2c1nc1ccccc13 [ASCIDIDEMIN] | 0.752 µM (active) | 0.255 µM (active) | 0.0371 µM (active) | 1.99 µM (inactive) | 0.0621 µM (active) | 0.912 µM (active) |  | 0.037 µM | 0.1 µM (active) | 0.637 µM (active) | 0.188 µM (active) | 0.157 µM (active) | 0.0551 µM (active) | 0.475 µM (active) | 0.188 µM (active) | 0.186 µM (active) | 0.281 µM (active) | 0.0845 µM (active) | 0.109 µM (active) | 0.272 µM (active)
